From ChEMBL document CHEMBL1201862, “PubChem BioAssay data set” (2004)
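Briefly, cells in 96-well plates were exposed to five compound concentrations for 48 h, and endpoints were estimated by linear interpolation. Here, GI50 denotes the concentration required for 50% inhibition of growth.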 The source made the active and inactive calls. No stated cut-off is given here; in the data, active = GI50 up to about 1.1 µM and inactive = higher.

Tests used:
Assay in all cases: NCI tumour cell line growth inhibition, 48 h
786-0 = tested on: 786-0
BT-549 = tested on: BT-549
CAKI-1 = tested on: CAKI-1
EKVX = tested on: EKVX
HCT-116 = tested on: HCT-116
HL-60 = tested on: HL-60
HOP-62 = tested on: HOP-62
K562 = tested on: K562
MDA-MB-435 = tested on: MDA-MB-435
MDA-N = tested on: MDA-N
MOLT-4 = tested on: MOLT-4
Malme-3M = tested on: Malme-3M
NCI-H23 = tested on: NCI-H23
OVCAR-5 = tested on: OVCAR-5
SK-MEL-5 = tested on: SK-MEL-5
SNB-75 = tested on: SNB-75
T47D = tested on: T47D
UACC-257 = tested on: UACC-257
UO-31 = tested on: UO-31
HOP-92 = tested on: HOP-92

| Structure (SMILES) | GI50 (786-0) | GI50 (BT-549) | GI50 (CAKI-1) | GI50 (EKVX) | GI50 (HCT-116) | GI50 (HL-60) | GI50 (HOP-62) | GI50 (K562) | GI50 (MDA-MB-435) | GI50 (MDA-N) | GI50 (MOLT-4) | GI50 (Malme-3M) | GI50 (NCI-H23) | GI50 (OVCAR-5) | GI50 (SK-MEL-5) | GI50 (SNB-75) | GI50 (T47D) | GI50 (UACC-257) | GI50 (UO-31) | GI50 (HOP-92) |
| --- | --- | --- | --- | --- | --- | --- | --- | --- | --- | --- | --- | --- | --- | --- | --- | --- | --- | --- | --- | --- |
| Cc1ccc(S(=O)(=O)N/N=C/c2c(O)ccc3ccccc23)cc1 | 30.1 µM (inactive) | 23.8 µM (inactive) | 17.9 µM (inactive) | 32.1 µM (inactive) | 15.3 µM (inactive) | 43.4 µM (inactive) | 37.7 µM (inactive) | 18.3 µM (inactive) | 23.7 µM (inactive) | 27.6 µM (inactive) | 20.5 µM (inactive) | 24.3 µM (inactive) | 30.5 µM (inactive) | 29.6 µM (inactive) | 31.8 µM (inactive) | 20.7 µM (inactive) | 31.8 µM (inactive) | 37.3 µM (inactive) | 53.7 µM (inactive) | – |
| O=C(/C=C(\O)c1cc(-c2ccccc2)n(-c2ccccc2)n1)c1ccccc1 | 3.27 µM (inactive) | 2.3 µM (inactive) | 3.13 µM (inactive) | 9.59 µM (inactive) | 5.64 µM (inactive) | 4.43 µM (inactive) | 3.46 µM (inactive) | 3.46 µM (inactive) | 3.78 µM (inactive) | 18.2 µM (inactive) | 0.415 µM (active) | 5.09 µM (inactive) | 9.71 µM (inactive) | 19.3 µM (inactive) | 8.85 µM (inactive) | – | 3.7 µM (inactive) | 59.4 µM (inactive) | 4.27 µM (inactive) | – |
| COc1nc2ncc([C@@H](OC(C)=O)[C@@H](COC(C)=O)OC(C)=O)nc2c(=O)[nH]1 | > 100 µM (inactive) | > 100 µM (inactive) | > 100 µM (inactive) | > 100 µM (inactive) | > 100 µM (inactive) | > 100 µM (inactive) | > 100 µM (inactive) | > 100 µM (inactive) | > 100 µM (inactive) | > 100 µM (inactive) | – | > 100 µM (inactive) | – | > 100 µM (inactive) | > 100 µM (inactive) | – | > 100 µM (inactive) | > 100 µM (inactive) | > 100 µM (inactive) | – |
| NC(CCc1ccccc1)(C(=O)O)c1ccccc1 (stereo not drawn) | > 100 µM (inactive) | > 100 µM (inactive) | > 100 µM (inactive) | > 100 µM (inactive) | > 100 µM (inactive) | – | > 100 µM (inactive) | > 100 µM (inactive) | > 100 µM (inactive) | > 100 µM (inactive) | > 100 µM (inactive) | > 100 µM (inactive) | > 100 µM (inactive) | > 100 µM (inactive) | > 100 µM (inactive) | > 100 µM (inactive) | > 100 µM (inactive) | > 100 µM (inactive) | > 100 µM (inactive) | > 100 µM (inactive) |
| CC1CC/C(=C\c2ccc(F)cc2)C2=C1C(c1ccc(F)cc1)N1C(=O)CSC1=N2 (stereo not drawn) | > 100 µM (inactive) | > 100 µM (inactive) | > 100 µM (inactive) | 17.7 µM (inactive) | 50 µM (inactive) | 4.35 µM (inactive) | – | 21.9 µM (inactive) | 91 µM (inactive) | > 100 µM (inactive) | 6.55 µM (inactive) | > 100 µM (inactive) | 58.5 µM (inactive) | – | 40 µM (inactive) | – | 45.1 µM (inactive) | 62.1 µM (inactive) | 87.9 µM (inactive) | – |
| Cc1nn(-c2ccccc2)c(C)c1/C=N/N=C1\SCC(=O)N1c1ccccc1 | 15.8 µM (inactive) | 22 µM (inactive) | 19.4 µM (inactive) | 12.4 µM (inactive) | 19.1 µM (inactive) | 30.8 µM (inactive) | 37.9 µM (inactive) | 25.8 µM (inactive) | 20.5 µM (inactive) | 20.9 µM (inactive) | 30.8 µM (inactive) | 21.2 µM (inactive) | 27.5 µM (inactive) | 27.7 µM (inactive) | 15 µM (inactive) | 20.4 µM (inactive) | 26.5 µM (inactive) | 32.4 µM (inactive) | 21.5 µM (inactive) | – |
| COC(=O)CC1(CNC(=O)OCc2ccccc2)OCCO1 | > 100 µM (inactive) | > 100 µM (inactive) | > 100 µM (inactive) | > 100 µM (inactive) | > 100 µM (inactive) | > 100 µM (inactive) | – | > 100 µM (inactive) | > 100 µM (inactive) | > 100 µM (inactive) | > 100 µM (inactive) | > 100 µM (inactive) | > 100 µM (inactive) | > 100 µM (inactive) | > 100 µM (inactive) | > 100 µM (inactive) | – | > 100 µM (inactive) | > 100 µM (inactive) | > 100 µM (inactive) |
| CCOC(=O)C(NC(=O)Nc1ccc(Cl)cc1)(OC)C(F)(F)F (stereo not drawn) | 13.8 µM (inactive) | > 100 µM (inactive) | 74.3 µM (inactive) | 56.5 µM (inactive) | 1.94 µM (inactive) | 9.68 µM (inactive) | – | 0.832 µM (active) | 3.25 µM (inactive) | 3.12 µM (inactive) | – | – | 37.9 µM (inactive) | 21.5 µM (inactive) | 15.1 µM (inactive) | > 100 µM (inactive) | 70 µM (inactive) | 21.9 µM (inactive) | 5.75 µM (inactive) | – |
| COC(=O)C1=C(C(=O)OC)C(N(C)C)C(C(=O)OC)=C(C(=O)OC)S1 | > 100 µM (inactive) | > 100 µM (inactive) | > 100 µM (inactive) | – | > 100 µM (inactive) | – | > 100 µM (inactive) | > 100 µM (inactive) | > 100 µM (inactive) | > 100 µM (inactive) | > 100 µM (inactive) | – | > 100 µM (inactive) | > 100 µM (inactive) | – | > 100 µM (inactive) | > 100 µM (inactive) | > 100 µM (inactive) | > 100 µM (inactive) | – |
| COC(=O)c1c(-c2ccccc2)c2sc3ccccc3n2c1N | 29.3 µM (inactive) | > 100 µM (inactive) | 51.3 µM (inactive) | 58.3 µM (inactive) | 28.6 µM (inactive) | – | 31.5 µM (inactive) | > 100 µM (inactive) | 81.7 µM (inactive) | 50.4 µM (inactive) | – | 24.9 µM (inactive) | 72.1 µM (inactive) | > 100 µM (inactive) | 59 µM (inactive) | 56.1 µM (inactive) | 20.8 µM (inactive) | > 100 µM (inactive) | 85.9 µM (inactive) | 29.1 µM (inactive) |
| COc1cc(OC)cc(-n2c(N)c(-c3nc4ccccc4n3C)c3ccc([N+](=O)[O-])cc3c2=O)c1 | 64.7 µM (inactive) | > 100 µM (inactive) | > 100 µM (inactive) | – | > 100 µM (inactive) | – | – | > 100 µM (inactive) | > 100 µM (inactive) | > 100 µM (inactive) | – | – | > 100 µM (inactive) | – | > 100 µM (inactive) | 2.02 µM (inactive) | > 100 µM (inactive) | > 100 µM (inactive) | > 100 µM (inactive) | 18.6 µM (inactive) |
| N#Cc1c(O)c(/N=N/c2ccccc2F)c(=O)n2c1[nH]c1ccccc12 | 43.7 µM (inactive) | 60 µM (inactive) | – | > 100 µM (inactive) | 26.6 µM (inactive) | 33 µM (inactive) | 43.7 µM (inactive) | 36.3 µM (inactive) | 21.6 µM (inactive) | 22 µM (inactive) | – | 28.5 µM (inactive) | 38.2 µM (inactive) | 34 µM (inactive) | 42 µM (inactive) | 30.4 µM (inactive) | – | 33.9 µM (inactive) | 29.3 µM (inactive) | 15.1 µM (inactive) |
| Nc1nc2cc(CNc3ccc(C(=O)O)cc3)ccc2nc1-c1ccccc1 | > 100 µM (inactive) | > 100 µM (inactive) | – | – | 69.8 µM (inactive) | > 100 µM (inactive) | > 100 µM (inactive) | > 100 µM (inactive) | > 100 µM (inactive) | > 100 µM (inactive) | 69.8 µM (inactive) | > 100 µM (inactive) | 88.7 µM (inactive) | > 100 µM (inactive) | > 100 µM (inactive) | 66.5 µM (inactive) | 35.1 µM (inactive) | > 100 µM (inactive) | 86.5 µM (inactive) | – |
| N#C/C(C(=O)Nc1ccccc1)=C(/N)N1CCCCC1 | > 100 µM (inactive) | > 100 µM (inactive) | > 100 µM (inactive) | 98.4 µM (inactive) | > 100 µM (inactive) | – | > 100 µM (inactive) | > 100 µM (inactive) | 84.9 µM (inactive) | > 100 µM (inactive) | > 100 µM (inactive) | – | > 100 µM (inactive) | > 100 µM (inactive) | > 100 µM (inactive) | > 100 µM (inactive) | > 100 µM (inactive) | > 100 µM (inactive) | 67.3 µM (inactive) | > 100 µM (inactive) |
| COc1ccc2[nH]c3ccc4cc[n+](CCN5CCC(C6CCN(CC[n+]7ccc8ccc9[nH]c%10ccc(OC)cc%10c9c8c7)CC6)CC5)cc4c3c2c1 | 0.249 µM (active) | 35.5 µM (inactive) | 1.02 µM (active) | > 50 µM (inactive) | 0.262 µM (active) | – | > 40.6 µM (inactive) | 0.228 µM (active) | > 50 µM (inactive) | 2.96 µM (inactive) | 0.346 µM (active) | 0.526 µM (active) | > 50 µM (inactive) | > 76 µM (inactive) | 1.81 µM (inactive) | 14.2 µM (inactive) | 20.4 µM (inactive) | 35.2 µM (inactive) | > 100 µM (inactive) | 0.303 µM (active) |
| CCC(=O)NCCc1c[nH]c2ccc(OC)cc12 | > 100 µM (inactive) | > 100 µM (inactive) | > 100 µM (inactive) | > 100 µM (inactive) | > 100 µM (inactive) | – | > 100 µM (inactive) | > 100 µM (inactive) | > 100 µM (inactive) | > 100 µM (inactive) | > 100 µM (inactive) | > 100 µM (inactive) | > 100 µM (inactive) | > 100 µM (inactive) | > 100 µM (inactive) | > 100 µM (inactive) | > 100 µM (inactive) | > 100 µM (inactive) | > 100 µM (inactive) | > 100 µM (inactive) |
